Measurements from US20200317639A1, “POLYMORPHS OF N-[(2,6-DIFLUORO-3-METHOXYPHENYL)METHYL]-3-(METHOXYMETHYL)-1-({4-[(2-OXOPYRIDIN-1YL)METHYL]PHENYL}METHYL)PYRAZOLE-4-CARBOXAMIDE” (KALVISTA PHARMACEUTICALS LIMITED, priority 2016, published 2020).
Entries after “also recorded” stand apart in the source; their conditions may differ. Values belong to the molecule of their own block, whether it stands above or below them.

Legend:
[1] = in vivo; cited from earlier work
rats = conditions: systemic administration; cited from earlier work
[2] = Stability study, 40° C./75% RH 6 months and 25° C./60% RH 12 months, packed; format: physicochemical
Experimental: Yet further evidence of the suitability of the crystalline forms for pharmaceutical development is provided by additional stability data disclosed herein. Form 1 of N-[(2,6-difluoro-3-methoxyphenyl)methyl]-3-(methoxymethyl)-1-({4-[(2-oxopyridin-1-yl)methyl]phenyl}methyl)pyrazole-4-carboxamide was stored separately at two conditions of 40° C./75% RH for 6 months and 25° C./60% RH for 12 months packed into double polyethylene bags inside an HDPE bottle sealed with a screw cap closure.
Further samples of Form 1 were stored separately at two conditions of 40° C./75% RH for 6 months and 25° C./60% RH for 12 months packed into double polyethylene bags inside an HDPE bottle sealed with a screw cap closure. In this stability study X-Ray Powder Diffraction patterns were collected on a PANalytical X'Pert PRO diffractometer using CuKα radiation (45 kV, 40 mA), θ-θ goniometer, focusing mirror (Cu W/Si), divergence slit (½°), soller slits at both incident and diffracted beam (0.04 RAD), fixed mask (4 mm) and a PIXcel detector. The software used for data collection was X′Pert Data Collector, version 2.2f. The instrument was performance checked using a certified Standard Reference Material 640 d, Silicon Powder (NIST). XRPD patterns were acquired under ambient conditions via a transmission foil sample stage (polyimide—Kapton, TF-475, 7.5 μm thickness film). The specimen was examined with approximately 5 mg of the sample examined as dispensed onto the sample stage. The data collection range was 2.994-35.0056° […] with a step size of 0.0263° and a continuous scan speed of 0.202004° s^−1. No change in the XRPD diffractogram was observed after 6 months at 40° C./75% RH or after 12 months at 25° C./60% RH (FIG. 16).
Further tests on the samples of Form 1 stored at 25° C./60% RH and 40° C./75% RH were carried out as described in the table below.

[3] = Stability study, open vial, 40° C./75% RH, 7 and 28 days; format: physicochemical; conditions: for XRPD change on storage: open glass vial covered with tissue
Experimental: Further evidence of the suitability of the crystalline forms for pharmaceutical development is provided by the stability data disclosed herein. Form 1 of N-[(2,6-difluoro-3-methoxyphenyl)methyl]-3-(methoxymethyl)-1-({4-[(2-oxopyridin-1-yl)methyl]phenyl}methyl)pyrazole-4-carboxamide was stored at 40° C./75% RH in a open glass vial covered with tissue. […] (FIG. 3).
A sample of Form 1 was placed in an open vial covered with tissue in a dessicator under accelerated stability conditions of 40° C./75% RH. The sample was reanalysed after 7 days and 28 days by XRPD, STA and DSC using the same methods as described above.

[4] = Gravimetric Vapour Sorption (GVS); format: physicochemical
Experimental: Gravimetric Vapour Sorption (GVS) data were collected using the following method: Approximately 10 mg of sample was placed into a wire-mesh vapour sorption balance pan and loaded into an ‘IgaSorp’ vapour sorption balance (Hiden Analytical Instruments). The sample was then dried by maintaining a 0% humidity environment until no further weight change was recorded. Subsequently, the sample was then subjected to a ramping profile from 0-90% RH at 10% RH increments, maintaining the sample at each step until equilibration had been attained (99% step completion). Upon reaching equilibration, the % RH within the apparatus was ramped to the next step and the equilibration procedure repeated. After completion of the sorption cycle, the sample was then dried using the same procedure. The weight change during the sorption/desorption cycles were then monitored, allowing for the hygroscopic nature of the sample to be determined.

postoperative bleeding = conditions: in vivo; cited from earlier work

Molecule: N=C(N)c1ccc(CNC(=O)c2cnn(Cc3ccccc3)c2)cc1 [ASP-440]
Oral availability [1]: poor oral availability
Hematoma expansion (rats): reduced hematoma expansion

Appearance ([2]; 25° C./60% RH, 12 months): As initial
Assay (% w/w on an anhydrous basis) ([2]; 25° C./60% RH, 12 months): 99.94 % w/w
Assay (% w/w “as-is”) ([2]; 25° C./60% RH, 12 months): 99.78 % w/w
DSC Onset ([2]; 25° C./60% RH, 12 months): Onset = 156.8 °C
DSC Peak ([2]; 25° C./60% RH, 12 months): Peak = 159.5 °C
Purity (% area) ([2]; 25° C./60% RH, 12 months): 100 % area
Water content (% w/w) ([2]; 25° C./60% RH, 12 months): 0.12 % w/w
XRPD ([2]; 25° C./60% RH, 12 months): no change; also recorded: As initial
Appearance ([2]; 40° C./75% RH, 6 months): As initial
Assay (% w/w on an anhydrous basis) ([2]; 40° C./75% RH, 6 months): 99.31 % w/w
Assay (% w/w “as-is”) ([2]; 40° C./75% RH, 6 months): 99.1 % w/w
DSC Onset ([2]; 40° C./75% RH, 6 months): Onset = 157.5 °C
DSC Peak ([2]; 40° C./75% RH, 6 months): Peak = 159.8 °C
Impurity Profile by HPLC (% area), Approx RRT 1.16 ([2]; 40° C./75% RH, 6 months): 0.03 % area
Purity (% area) ([2]; 40° C./75% RH, 6 months): 99.99 % area
Water content (% w/w) ([2]; 40° C./75% RH, 6 months): 0.17 % w/w
XRPD ([2]; 40° C./75% RH, 6 months): no change; also recorded: As initial
Appearance ([2]; Initial, 0 months): A white solid. Free from
Assay (% w/w on an anhydrous basis) ([2]; Initial, 0 months): 100.18 % w/w
DSC Onset ([2]; Initial, 0 months): Onset = 156.3 °C
DSC Peak ([2]; Initial, 0 months): Peak = 158.9 °C
Impurity Profile by HPLC (% area), Approx RRT 1.12 ([2]; Initial, 0 months): 0.03 % area
Purity (% area) ([2]; Initial, 0 months): 100 % area
Water content (% w/w) ([2]; Initial, 0 months): 0.19 % w/w
XRPD ([2]; Initial, 0 months): Conforms to Form 1
All measured parameters including Assay, Water Content, XRPD, DSC, Purity and Impurity Profile ([2]; over the course of the study (6 months 40° C./75% RH, 12 months 25° C./60% RH)): remained unchanged
XRPD change on storage ([3]; 40° C./75% RH, 7 days): no change
XRPD change on storage ([3]; 40° C./75% RH, 28 days): no change
DSC onset temperature ([3]; 40° C./75% RH, open vial, after 7 days): 155.2 °C
DSC onset temperature ([3]; 40° C./75% RH, open vial, after 28 days): 155.0 °C
DSC onset temperature ([3]; initial timepoint): 154.9 °C
Hygroscopicity by GVS [4]: absence of significant hygroscopicity
%-Wt (dry basis), Adsorption ([4]; 0.007 %-RH): 0.000001 %-Wt
%-Wt (dry basis), Adsorption ([4]; 0.008 %-RH): 0.001373 %-Wt
%-Wt (dry basis), Desorption ([4]; 0.32 %-RH): 0.002745 %-Wt
%-Wt (dry basis), Desorption ([4]; 5 %-RH): 0.04664 %-Wt
%-Wt (dry basis), Adsorption ([4]; 10.023 %-RH): 0.07544 %-Wt
%-Wt (dry basis), Desorption ([4]; 14.995 %-RH): 0.09053 %-Wt
%-Wt (dry basis), Adsorption ([4]; 20.021 %-RH): 0.1619 %-Wt
%-Wt (dry basis), Desorption ([4]; 24.99 %-RH): 0.1934 %-Wt
%-Wt (dry basis), Adsorption ([4]; 30.013 %-RH): 0.2634 %-Wt
%-Wt (dry basis), Desorption ([4]; 34.982 %-RH): 0.2908 %-Wt
%-Wt (dry basis), Adsorption ([4]; 40.002 %-RH): 0.3978 %-Wt
%-Wt (dry basis), Desorption ([4]; 44.976 %-RH): 0.4554 %-Wt
%-Wt (dry basis), Adsorption ([4]; 50.002 %-RH): 0.5926 %-Wt
%-Wt (dry basis), Desorption ([4]; 55.026 %-RH): 0.6474 %-Wt
%-Wt (dry basis), Adsorption ([4]; 59.996 %-RH): 0.8573 %-Wt
%-Wt (dry basis), Desorption ([4]; 65.02 %-RH): 1.033 %-Wt
%-Wt (dry basis), Adsorption ([4]; 69.993 %-RH): 1.311 %-Wt
%-Wt (dry basis), Desorption ([4]; 75.011 %-RH): 1.653 %-Wt
%-Wt (dry basis), Adsorption ([4]; 79.987 %-RH): 2.17 %-Wt
%-Wt (dry basis), Desorption ([4]; 85.005 %-RH): 2.905 %-Wt
%-Wt (dry basis), Adsorption ([4]; 89.98 %-RH): 4.173 %-Wt
%-Wt (dry basis), Desorption ([4]; 89.98 %-RH): 4.173 %-Wt
Molecule: COCc1nn(Cc2ccc(Cn3ccccc3=O)cc2)cc1C(=O)NCc1c(F)ccc(OC)c1F [Form 1, N-[(2,6-difluoro-3-methoxyphenyl)methyl]-3-(methoxymethyl)-1-({4-[(2-oxopyridin-1-yl)methyl]phenyl}methyl)pyrazole-4-carboxamide]
Reversibility of hydration (hysteresis) by GVS ([4]; FIG. 4): hydration is reversible (i.e. no significant hysteresis)
Increase in water content by GVS ([4]; normal conditions (up to 70% relative humidity)): only a relatively gradual increase in water content

%-Wt (dry basis), Desorption ([4]; 0.01 %-RH): 1.174 %-Wt
%-Wt (dry basis), Adsorption ([4]; 0.012 %-RH): 0.003304 %-Wt
%-Wt (dry basis), Adsorption ([4]; 0.013 %-RH): 0.004135 %-Wt
%-Wt (dry basis), Desorption ([4]; 5.002 %-RH): 2.121 %-Wt
%-Wt (dry basis), Adsorption ([4]; 10.022 %-RH): 0.3314 %-Wt
%-Wt (dry basis), Desorption ([4]; 15.039 %-RH): 3.537 %-Wt
%-Wt (dry basis), Adsorption ([4]; 20.014 %-RH): 0.7833 %-Wt
%-Wt (dry basis), Desorption ([4]; 25.192 %-RH): 5.219 %-Wt
%-Wt (dry basis), Adsorption ([4]; 30.014 %-RH): 1.246 %-Wt
%-Wt (dry basis), Desorption ([4]; 34.985 %-RH): 6.774 %-Wt
%-Wt (dry basis), Adsorption ([4]; 40.009 %-RH): 1.892 %-Wt
%-Wt (dry basis), Desorption ([4]; 44.978 %-RH): 7.808 %-Wt
%-Wt (dry basis), Adsorption ([4]; 49.999 %-RH): 2.49 %-Wt
%-Wt (dry basis), Desorption ([4]; 55.023 %-RH): 8.516 %-Wt
%-Wt (dry basis), Adsorption ([4]; 59.993 %-RH): 3.239 %-Wt
%-Wt (dry basis), Desorption ([4]; 65.019 %-RH): 9.185 %-Wt
%-Wt (dry basis), Adsorption ([4]; 69.992 %-RH): 4.507 %-Wt
%-Wt (dry basis), Desorption ([4]; 75.011 %-RH): 9.927 %-Wt
%-Wt (dry basis), Adsorption ([4]; 79.981 %-RH): 7.117 %-Wt
%-Wt (dry basis), Desorption ([4]; 85.009 %-RH): 10.43 %-Wt
%-Wt (dry basis), Adsorption ([4]; 89.98 %-RH): 10.71 %-Wt
%-Wt (dry basis), Desorption ([4]; 89.98 %-RH): 10.71 %-Wt
Molecule: COCc1nn(Cc2ccc(Cn3ccccc3=O)cc2)cc1C(=O)NCc1c(F)ccc(OC)c1F [Form A, N-[(2,6-Difluoro-3-methoxyphenyl)methyl]-3-(methoxymethyl)-1-({4-[(2-oxopyridin-1-yl)methyl]phenyl}methyl)pyrazole-4-carboxamide]

Molecule: aprotinin
Postoperative bleeding (postoperative bleeding): may be used to decrease postoperative bleeding
